From patent publication US10174029B2, “Pyrimidine-2,4-diamine derivatives for treatment of cancer” (THOMAS HELLEDAYS STIFTELSE FOR MEDICINSK FORSKNING, priority 2012, dated 2019)

biological target: MTH1 (Homo sapiens, UniProt P36639); assay: MTH1 enzymatic assay and IC50 value determination (malachite green); type: biochemical; details: MTH1 4.8 nM, dGTP 100 μM, 15 minutes at 22° C.; group: less than 200 nM
Method in brief: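 Malachite green detection of Pi after coupling dGTP hydrolysis to excess E. coli pyrophosphatase; 4.8 nM MTH1, 100 μM dGTP in Tris-acetate buffer with Mg2+ and DTT, 1% DMSO, 15 min at 22 °C. 12-point 1:3 compound series; absorbance at 630 nm; IC50 by four-parameter nonlinear regression.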

IC50, < 200 nM:
Cc1cccc(-c2cc(NCCNc3ccc(S(N)(=O)=O)cn3)nc(N)n2)c1C [Example 443, 6-[(2-{[2-amino-6-(2,3-dimethylphenyl)pyrimidin-4-yl]amino}ethyl)amino]pyridine-3-sulfonamide]
Cc1cccc(-c2cc(NCCCNS(=O)(=O)c3ccc(S(N)(=O)=O)cc3)nc(N)n2)c1C [Example 444, 1-N-(3-{[2-amino-6-(2,3-dimethylphenyl)pyrimidin-4-yl]amino}propyl)benzene-1,4-disulfonamide]
CS(=O)(=O)c1ccc(CCNc2cc(-c3cccc(Cl)c3Cl)nc(N)n2)cc1 [Example 445, 6-(2,3-dichlorophenyl)-4-N-[2-(4-methanesulfonylphenyl)ethyl]pyrimidine-2,4-diamine]
COc1cccc(NCCNc2cc(-c3cccc(C)c3C)nc(N)n2)c1 [Example 447, 6-(2,3-dimethylphenyl)-4-N-{2-[(3-methoxyphenyl)amino]ethyl}pyrimidine-2,4-diamine]
Cc1cccc(-c2cc(NCCNc3ccc(Br)cn3)nc(N)n2)c1C [Example 451, 4-N-{2-[(5-bromopyridin-2-yl)amino]ethyl}-6-(2,3-dimethylphenyl)pyrimidine-2,4-diamine]
Cc1noc(C)c1-c1cc(NCCc2ccc(Cl)cc2)nc(N)n1 [Example 453, 4-N-[2-(4-chlorophenyl)ethyl]-6-(dimethyl-1,2-oxazol-4-yl)pyrimidine-2,4-diamine]
Cc1cccc(-c2cc(NCCNc3cccnc3)nc(N)n2)c1C [Example 454, 6-(2,3-dimethylphenyl)-4-N-{2-[(pyridin-3-yl)amino]ethyl}pyrimidine-2,4-diamine]
